The values that follow are results of earlier work, collected in the CATMoS acute toxicity set (Mansouri et al. 2021).

The structures appear in SMILES notation. “And” between values parts separate entries of the source, which are not always exact repeats. Equal values may be shown once.

A word on the LD50: it is the dose at which mortality reaches 50%.

The data set is described as follows: rat acute oral toxicity. The following applies: in vivo. An excerpt: […]The data set underlying the modeling effort for this project was initially compiled by NICEATM and U.S. EPA’s CCTE. Briefly, LD50 data were collected from rat acute oral systemic toxicity tests, including limit tests, ranges/confidence intervals, and discrete LD50 values. The full data set included 21,200 LD50 entries for 15,688 substances. […] Data were reviewed to ensure that LD50 values with obvious errors in the extracted data such as unit conversion errors (e.g., comma and decimal separator misplacements) were either fixed or removed. After this review, 16,209 LD50 values remained. Many of the chemicals represented had multiple LD50 entries, requiring that a single representative value per Chemical Abstracts Service Registry Number (CASRN) identifier be defined to facilitate modeling efforts. Based on ATWG feedback and to define the representative LD50 as a protective value while accounting for the distribution across multiple LD50s, the median of the lowest quartile was computed using only discrete LD50 values (omitting limit test data and range and confidence interval data). A detailed summary of the data compilation is available online on the NICEATM webpage dedicated to the collaborative modeling project (NTP 2020).
[…][…] For categorical designations, limit test and range/confidence interval LD50 data were integrated wherever possible. As such, the number of chemicals with end point values/calls varies across the modeling end points (Table 3) based on whether chemicals had representative LD50 values and/or other data. If a chemical had both, the representative value was used to determine categorical calls rather than limit test data. Some data were useable only for certain end points and categories depending on the thresholds. For example, ranges that spanned multiple hazard categories were considered only for the binary (very toxic/nontoxic) end points and omitted from rendering a determination for hazard category assignment.
[…]The final data set comprising 11,992 chemicals was split into training and evaluation sets […], respectively. This process was performed semirandomly by ordering chemicals based on the five end points (categorical and continuous LD50 values) and partitioning every fourth record into the evaluation set accordingly. This approach was taken to ensure an equivalent distribution of the LD50 values and the different hazard categories between the training and the evaluation sets without supervised sampling of the chemicals based on structures (Figure 1A). The sources of the chemical structures were also kept equivalent between the two sets, with chemical structures obtained from DSSTox, being the highest quality, representing over 75% of each set (Figure 1B).
As to `CCOCOC(=O)c1ccccc1Nc1c(Cl)ccc(C)c1Cl`, the LD50 is 307 mg/kg.

For `CC(C)(Oc1ccc(C2CCCc3ccccc32)cc1)C(=O)O` (stereo not drawn), the LD50 is 900 mg/kg.

For `C[C@H](O)[C@H](O)[C@H]1CNc2[nH]c(N)nc(=O)c2N1`, the LD50 was 1000 mg/kg.

`CCOC(C1=NCCCN1)c1cccc2ccccc12` (stereo not drawn): the LD50 is 375 mg/kg.

On to `O=C(c1ccccc1)c1cccc(NS(=O)(=O)C(F)F)c1`, for which the LD50 is 750 mg/kg and 450 mg/kg.

`CC(C(C)(C)C)C(C)(C)SSSC(C)(C)C(C)C(C)(C)C` (stereo not drawn): the LD50 was 19600 mg/kg.

Turning to `CNNC`, the LD50 is 100 mg/kg and 257 mg/kg.

Consider `OCCOCCN(CCOCCO)CCN(CCOCCO)CCOCCO`, for which the LD50 is 9900 mg/kg.

With `CN(C)CCC(c1ccc(Br)cc1)c1ccccn1` (stereo not drawn), the LD50 was 318 mg/kg.

For the molecule `CC(C(=O)O)c1ccc2c(c1)CC(=O)c1ccccc1S2` (stereo not drawn), the LD50 was 425 mg/kg.

As to `N#CC(N=Nc1ccc(C(F)(F)F)cc1)=NNc1ccc(C(F)(F)F)cc1`, the LD50 is 613 mg/kg.

On to `CC(C)(C)c1cc(C2C(=O)c3ccccc3C2=O)cc(C(C)(C)C)c1`, for which the 50% lethal dose (LD50) is 194 mg/kg.

Turning to `CCOC(=S)C=Cc1cc(OC)c(OC)c(OC)c1`, the 50% lethal dose (LD50) was 1000 mg/kg.

Take `Cc1cc(C)c(C)cc1C`: the LD50 is 6990 mg/kg.

Consider `COC(=O)c1ccc(I)cc1S(=O)(=O)NC(=O)Nc1nc(C)nc(OC)n1`, for which the LD50 is 2680 mg/kg.

Consider `CS(=O)(=O)c1ccc2c(c1)N(CCCN1CCC(C(N)=O)CC1)c1ccccc1S2`, for which the LD50 is 976 mg/kg.

For `COCCNC(=O)CSP(=S)(OC)OC`, the LD50 is 420 mg/kg.

Regarding `CC[C@H](OC(C)=O)C(C[C@H](C)N(C)C)(c1ccccc1)c1ccccc1`, the LD50 is 29 mg/kg.

Turning to `CCOCCOCC(C)O` (stereo not drawn), the LD50 is 9330 mg/kg.

Consider `Cc1ccccc1CNC1=NCCS1`, for which the 50% lethal dose (LD50) is 164 mg/kg.

For the molecule `O=C1C=CC(=O)N1c1c(F)c(F)c(F)c(N2C(=O)C=CC2=O)c1F`, the LD50 was 2100 mg/kg.

In the case of `CC1(C)Cc2cccc(OC(=O)NCSc3ccc(Br)cc3)c2O1`, the LD50 is 25 mg/kg.

As for `CCCCCCCCP(=O)(O)O`, the LD50 is 1890 mg/kg.

Take `COC(CN1CCN(CC(O)C(OC)c2ccccc2)CC1)c1ccccc1` (stereo not drawn): the 50% lethal dose (LD50) is 435 mg/kg.

With `C=CC(=O)NCO`, the LD50 was 474 mg/kg.

Consider `Cc1cc(Cl)ccc1N`, for which the LD50 was 1060 mg/kg.

As for `C=C1C[C@@H]1C[C@H](N)C(=O)O`, the 50% lethal dose (LD50) is 98 mg/kg.

As for `CC(=O)OC1=C(c2c(C)cc(C)cc2C)C(=O)c2ccccc21`, the median lethal dose (LD50) was 8000 mg/kg.

On to `CCOC(=O)C(Cl)=NNc1ccccc1`, for which the median lethal dose (LD50) is 13000 mg/kg.

Consider `c1ccc(C2CN3CCSC3=N2)cc1` (stereo not drawn), for which the median lethal dose (LD50) is 180 mg/kg and 480 mg/kg.

For `CCCCOCCOCCCC`, the LD50 was 3250 mg/kg.

Take `O=C(O)[C@H](O)[C@@H](O)[C@H](O)[C@H](O)CO`: the LD50 is 10400 mg/kg.

Turning to `Nc1ccc2c(c1)Cc1cc(N)ccc1-2`, the 50% lethal dose (LD50) is 1070 mg/kg.

For `COc1ccc(SP(=S)(CCl)OC(C)C)cc1` (stereo not drawn), the 50% lethal dose (LD50) was 108 mg/kg.

For the molecule `CC1(C)CC2(NC(=O)N(CCCN3CCC(O)CC3)C2=O)c2cc(F)ccc2O1` (stereo not drawn), the LD50 is 780 mg/kg.

`CN1CCN(C2=Cc3ccccc3Oc3ccc(Cl)cc32)CC1`: the median lethal dose (LD50) is 231 mg/kg.

In the case of `O=NN1CN(N=O)CN(N=O)C1`, the LD50 was 160 mg/kg.

Take `CN(C)N=Nc1ccc(Br)cc1`: the LD50 was 423 mg/kg.

For the molecule `O=C(O)c1cn(C2CC2)c2cc(Cl)c(F)cc2c1=O`, the LD50 was 583 mg/kg.

Regarding `CCN(CC)CCNC(=O)c1cc(S(C)(=O)=O)ccc1OC`, the LD50 was 4840 mg/kg.

Turning to `CC1(CCO)CCOCO1` (stereo not drawn), the LD50 is 8800 mg/kg.

On to `CCCOc1cccc(C)c1N(COCC)C(=O)CCl`, for which the LD50 is 2600 mg/kg.

For `CN=C1C=CC(=C(c2ccc(N(C)C)cc2)c2ccc(N(C)C)cc2)C=C1`, the LD50 is 413 mg/kg.

For the molecule `O=C(c1ccc(Cl)cc1)c1ccccc1-c1ncc[nH]1`, the LD50 is 600 mg/kg.

Turning to `CCOc1c(N2CCOCC2)cnn(C)c1=O`, the LD50 is 1900 mg/kg.

Consider `CNC(=O)ON=C1CSCCS1`, for which the LD50 was 15 mg/kg.

As to `COc1cc(C(=O)NC2CCCNC2)cc(OC)c1OC` (stereo not drawn), the LD50 is 2100 mg/kg.

On to `OCCC1CCCCC1`, for which the LD50 is 940 mg/kg.

Regarding `O=C(Nc1cc(F)ccc1F)NC1CC1`, the LD50 was 152 mg/kg.

As for `CC(C)=CC(=O)O`, the LD50 was 3560 mg/kg.

With `C[C@H](N)[C@H](O)c1cccc(O)c1`, the LD50 was 240 mg/kg.

Turning to `CC=CC(C)=O`, the median lethal dose (LD50) was 3200 mg/kg.

Regarding `CC(C)OC(=O)C(C(=O)OC(C)C)=C1SC=CS1`, the LD50 was 2060 mg/kg.
